Measured values reported in PubChem BioAssay (NCI).
Several values for one entry are separate records, joined by “and”; a condition that tells them apart may be missing. Identical values can stand only once.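 Method: 48-hour compound exposure of cells in 96-well plates, five concentrations, linear interpolation of endpoints. GI50 marks 50% less growth. Definition used: TGI = concentration required for complete inhibition of growth.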

Assays:
Test in all cases: DTP human tumour cell line panel, 48 h
[1] = tested on: CCRF-CEM leukemia
[2] = tested on: SR leukemia
[3] = tested on: SK-MEL-5 melanoma
[4] = tested on: HOP-92 NSCLC
[5] = tested on: MDA-MB-231 breast
[6] = tested on: OVCAR-3 ovarian
[7] = tested on: SN12C renal
[8] = tested on: OVCAR-8 ovarian
[9] = tested on: A549 NSCLC
[10] = tested on: SW-620 colon

SMILES	GI50 [1]	TGI [1]	GI50 [2]	TGI [2]	GI50 [3]	TGI [3]	GI50 [4]	TGI [4]	TGI [5]	GI50 [6]	TGI [6]	GI50 [7]	TGI [7]	GI50 [8]	TGI [8]	GI50 [9]	TGI [9]	GI50 [10]	TGI [10]	GI50 [5]
CN(Cc1cnc2nc(N)nc(N)c2n1)c1c(Cl)cc(C(=O)NC(CCC(=O)O)C(=O)O)cc1Cl (stereo not drawn)	< 0.01 µM	> 100 µM	< 0.01 µM	> 100 µM	0.0483 µM	> 100 µM	1.49 µM	> 100 µM	> 100 µM	0.0685 µM	> 100 µM	< 0.01 µM	> 100 µM	< 0.01 µM	> 100 µM	< 0.0116 µM	> 100 µM	< 0.01 µM	> 100 µM	
CC(=O)c1nc(-c2ccc(C[C@@H](CNC(=O)CN(C)C)NC(=O)c3ccc(OC(C)C)c(Cl)c3)cc2)cn1C	0.0447 µM	34.7 µM	0.0506 µM	12.6 µM	0.0707 µM	5.51 µM	1.52 µM	13.8 µM	8.75 µM	0.0332 µM	13.3 µM	0.0579 µM	17.1 µM	0.0617 µM	23.4 µM	0.0518 µM	19.1 µM	0.0663 µM	20.4 µM	0.0535 µM
CCS(=O)(=O)c1cccc(-c2cc(C(=O)NC3CCN(C)CC3)c(C)c3[nH]c4ncc(C)cc4c23)c1	0.101 µM and 0.0822 µM	> 10 µM and 38.1 µM	0.0682 µM and < 0.0246 µM	2.14 µM and 1.58 µM	2.29 µM and 0.798 µM	> 9.22 µM and 2.65 µM	0.12 µM and 0.0887 µM	0.595 µM and 0.33 µM	> 5.15 µM and 4.9 µM	0.336 µM and 0.232 µM	2.48 µM and 1.41 µM	0.283 µM and 0.272 µM	3.88 µM and 11.3 µM	1.58 µM and 0.855 µM	> 10 µM and 11.1 µM	0.49 µM and 0.169 µM	4.12 µM and 3.79 µM	0.268 µM and 0.143 µM	> 10 µM and 1.85 µM	0.232 µM and 0.196 µM
CCOC(=O)/C=C/c1ccc([N+](=O)[O-])o1	0.518 µM	10.2 µM	1.64 µM	26.1 µM	3.81 µM	15.2 µM	2.66 µM	6.36 µM	11.6 µM	3.13 µM	9.21 µM	3.03 µM	10.8 µM	2.91 µM	12.3 µM	25.3 µM	> 100 µM	2.38 µM	7.16 µM	3.51 µM
COc1ccc(/C=C(\C#N)c2cc(OC)c(OC)c(OC)c2)cc1	0.0361 µM	> 43.5 µM	< 0.01 µM		0.0182 µM	0.0644 µM	0.277 µM	25.1 µM	> 100 µM	< 0.014 µM	0.0322 µM	0.0486 µM	> 100 µM	0.0293 µM	> 82.8 µM	0.0288 µM	> 75.2 µM	0.0282 µM	> 100 µM	0.0483 µM
C[C@]12CCC3c4ccc(O)cc4CCC3C1CC[C@@H]2NC(=O)/C=C/c1ccc(O)c(O)c1 (stereo partly drawn)	3.2 µM	30 µM	7.26 µM	42 µM	10.5 µM	25.2 µM	5.59 µM	25.1 µM	33.6 µM	21.5 µM	48.7 µM	13.4 µM	34.2 µM	10.4 µM	29.1 µM	15.5 µM	31.8 µM	15.9 µM	45 µM	14.5 µM
CC(C)(O)c1cc(Nc2cc(Oc3cn(C4CC4)nc3C3CCOCC3)ccn2)ccn1	> 100 µM	> 100 µM	> 100 µM	> 100 µM	38.7 µM	> 100 µM	21.3 µM	> 100 µM	> 100 µM	98.1 µM	> 100 µM	> 100 µM	> 100 µM	> 100 µM	> 100 µM	> 100 µM	> 100 µM	> 100 µM	> 100 µM	65 µM
C/C(=N\NC(=S)N1CCCC1)c1ccccn1	< 0.01 µM	23.1 µM	< 0.01 µM	> 49.9 µM	0.0348 µM	0.42 µM	0.0508 µM	7.98 µM	16.2 µM	< 0.01 µM	12.1 µM	0.0132 µM	11.8 µM	< 0.01 µM	12.4 µM	< 0.01 µM	10.5 µM	< 0.01 µM	16.8 µM	< 0.0348 µM
OC(Cc1cccc2ccccc12)CN1CCC(c2ccccc2)CC1 (stereo not drawn)		62.6 µM		27.4 µM		24.4 µM		27.4 µM	28.4 µM		30.5 µM		30.6 µM		32 µM		29.9 µM		29.9 µM	
COc1ccc2c(CN3CCCC[C@H]3O)cc3cc4c(cc3c2c1)OCO4	0.528 µM	4.07 µM	0.195 µM	0.854 µM	0.345 µM	1.39 µM	0.241 µM	2.4 µM	8.43 µM	0.409 µM	3.4 µM	0.326 µM	4.06 µM	0.268 µM	3.94 µM	0.28 µM	2.82 µM	0.31 µM	4.65 µM	0.62 µM
